Laboratory results published in patent US12077503B2, “Substituted cyclic amides and their use as herbicides” (FMC CORPORATION, priority 2015, dated 2024).

Assays:
Assay type in all cases: in vivo
corn (Zea mays) [1] = assay: Test G Post-Emergence Protocol; conditions: Zea mays, post-emergence, 312 h, read-out: Corn damage rating
Method in brief: (§1)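 Scores run 0 (no damage) to 100 (total damage) and were taken 13 days after spraying. Plants had been raised in pots for 8 days under glasshouse control (24/16 °C, 14 h photoperiod, 65% humidity) and then treated at 15.625, 62.5 or 250 g/ha.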

[2] = test system: redroot pigweed (Amaranthus retroflexus); assay: Test G Post-Emergence Protocol; conditions: Amaranthus retroflexus, post-emergence, 312 h, read-out: Pigweed, Redroot damage rating
Method in brief: as §1

[3] = test system: barnyardgrass (Echinochloa crus-galli); assay: Test G Post-Emergence Protocol; conditions: Echinochloa crus-galli, post-emergence, 312 h, read-out: Barnyardgrass damage rating
Method in brief: as §1

[4] = test system: velvetleaf (Abutilon theophrasti); assay: Test G Post-Emergence Protocol; conditions: Abutilon theophrasti, post-emergence, 312 h, read-out: Velvetleaf damage rating
Method in brief: as §1

[5] = test system: giant foxtail (Setaria faberi); assay: Test G Post-Emergence Protocol; conditions: Setaria faberi, post-emergence, 312 h, read-out: Foxtail, Giant damage rating
Method in brief: as §1

[6] = test system: ivy-leaved morning glory (Ipomoea hederacea); assay: Test G Post-Emergence Protocol; conditions: Ipomoea, post-emergence, 312 h, read-out: Morningglory, Ivy-leaved damage rating
Method in brief: as §1

corn (Zea mays) [7] = assay: Test G Pre-Emergence Protocol; conditions: Zea mays, pre-emergence, 312 h, evaluated after 13 days
Method in brief: (§2)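 Under a 24/16° C day/night regime with 14 h light and 65% humidity, sown pots were sprayed after one day with compound (15.625, 62.5 or 250 g/ha; 50:50 acetone/water, 0.5% Tween 20). Damage was assessed visually 13 days later, 0 to 100.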

[8] = test system: redroot pigweed (Amaranthus retroflexus); assay: Test G Pre-Emergence Protocol; conditions: Amaranthus retroflexus, pre-emergence, 312 h, evaluated after 13 days
Method in brief: as §2

[9] = test system: barnyardgrass (Echinochloa crus-galli); assay: Test G Pre-Emergence Protocol; conditions: Echinochloa crus-galli, pre-emergence, 312 h, evaluated after 13 days
Method in brief: as §2

[10] = test system: velvetleaf (Abutilon theophrasti); assay: Test G Pre-Emergence Protocol; conditions: Abutilon theophrasti, pre-emergence, 312 h, evaluated after 13 days
Method in brief: as §2

[11] = test system: giant foxtail (Setaria faberi); assay: Test G Pre-Emergence Protocol; conditions: Setaria faberi, pre-emergence, 312 h, evaluated after 13 days
Method in brief: as §2

[12] = test system: ivy-leaved morning glory (Ipomoea hederacea); assay: Test G Pre-Emergence Protocol; conditions: Ipomoea, pre-emergence, 312 h, evaluated after 13 days
Method in brief: as §2

[13] = 15.625 g ai/ha, evaluated after 13 days (100=total damage to plant; 0=no damage to plant)
[14] = 62.5 g ai/ha, evaluated after 13 days, 100=total damage to plant, 0=no damage to plant
[15] = 250 g ai/ha, evaluated after 13 days, 100=total damage to plant, 0=no damage to plant

**Q.** With `CN1C[C@H](c2cccc(C(F)(F)F)c2)[C@@H](C(=O)Nc2cnccc2[N+](=O)[O-])C1=O` (racemic) [Compound 1731] as the compound, how does the plant injury at 15.625 g/ha (corn (Zea mays) [1]; [13]) read?
**A.** The plant injury at 15.625 g/ha was 0%.

**Q.** And the plant injury at 62.5 g/ha (corn (Zea mays) [1]; [14])?
**A.** Its plant injury at 62.5 g/ha is 0%.

**Q.** And the plant injury at 250 g/ha (corn (Zea mays) [1]; [15])?
**A.** Its plant injury at 250 g/ha is 0%.

**Q.** And the pest or weed control at 15.625 g/ha [2, 13]?
**A.** Its pest or weed control at 15.625 g/ha is 0%.

**Q.** What about the pest or weed control at 62.5 g/ha [2, 14] of the same compound?
**A.** Its pest or weed control at 62.5 g/ha is 0%.

**Q.** What about the pest or weed control at 250 g/ha [2, 15] of the same compound?
**A.** Its pest or weed control at 250 g/ha is 10%.

**Q.** What about the pest or weed control at 15.625 g/ha [3, 13] of the same compound?
**A.** Its pest or weed control at 15.625 g/ha is 0%.

**Q.** And the pest or weed control at 62.5 g/ha [3, 14]?
**A.** The pest or weed control at 62.5 g/ha was 0%.

**Q.** What about the pest or weed control at 250 g/ha [3, 15] of the same compound?
**A.** Its pest or weed control at 250 g/ha is 0%.

**Q.** And the pest or weed control at 15.625 g/ha [4, 13]?
**A.** Its pest or weed control at 15.625 g/ha is 0%.

**Q.** What about the pest or weed control at 62.5 g/ha [4, 14] of the same compound?
**A.** Its pest or weed control at 62.5 g/ha is 0%.

**Q.** And the pest or weed control at 250 g/ha [4, 15]?
**A.** The pest or weed control at 250 g/ha was 0%.

**Q.** What about the pest or weed control at 15.625 g/ha [5, 13] of the same compound?
**A.** Its pest or weed control at 15.625 g/ha is 0%.

**Q.** And the pest or weed control at 62.5 g/ha [5, 14]?
**A.** Its pest or weed control at 62.5 g/ha is 0%.

**Q.** And the pest or weed control at 250 g/ha [5, 15]?
**A.** The pest or weed control at 250 g/ha was 0%.

**Q.** And the pest or weed control at 15.625 g/ha [6, 13]?
**A.** Its pest or weed control at 15.625 g/ha is 0%.

**Q.** What about the pest or weed control at 62.5 g/ha [6, 14] of the same compound?
**A.** The pest or weed control at 62.5 g/ha was 0%.

**Q.** And the pest or weed control at 250 g/ha [6, 15]?
**A.** Its pest or weed control at 250 g/ha is 0%.

**Q.** And the plant injury at 15.625 g/ha (corn (Zea mays) [7]; 15.625 g ai/ha, read-out: Corn damage rating (100=total damage to plant; 0=no damage to plant))?
**A.** The plant injury at 15.625 g/ha was 0%.

**Q.** What about the plant injury at 62.5 g/ha (corn (Zea mays) [7]; 62.5 g ai/ha, 100=total damage to plant, 0=no damage to plant, read-out: Corn damage rating) of the same compound?
**A.** The plant injury at 62.5 g/ha was 0%.

**Q.** What about the plant injury at 250 g/ha (corn (Zea mays) [7]; 250 g ai/ha, read-out: Corn damage rating (100=total damage to plant; 0=no damage to plant)) of the same compound?
**A.** Its plant injury at 250 g/ha is 0%.

**Q.** What about the pest or weed control at 15.625 g/ha ([8]; 15.625 g ai/ha, read-out: Pigweed, Redroot damage rating (100=total damage to plant; 0=no damage to plant)) of the same compound?
**A.** Its pest or weed control at 15.625 g/ha is 0%.

**Q.** What about the pest or weed control at 62.5 g/ha ([8]; 62.5 g ai/ha, 100=total damage to plant, 0=no damage to plant, read-out: Pigweed, Redroot damage rating) of the same compound?
**A.** Its pest or weed control at 62.5 g/ha is 0%.

**Q.** What about the pest or weed control at 250 g/ha ([8]; 250 g ai/ha, read-out: Pigweed, Redroot damage rating (100=total damage to plant; 0=no damage to plant)) of the same compound?
**A.** The pest or weed control at 250 g/ha was 0%.

**Q.** And the pest or weed control at 15.625 g/ha ([9]; 15.625 g ai/ha, read-out: Barnyardgrass damage rating (100=total damage to plant; 0=no damage to plant))?
**A.** The pest or weed control at 15.625 g/ha was 0%.

**Q.** What about the pest or weed control at 62.5 g/ha ([9]; 62.5 g ai/ha, 100=total damage to plant, 0=no damage to plant, read-out: Barnyardgrass damage rating) of the same compound?
**A.** The pest or weed control at 62.5 g/ha was 0%.

**Q.** What about the pest or weed control at 250 g/ha ([9]; 250 g ai/ha, read-out: Barnyardgrass damage rating (100=total damage to plant; 0=no damage to plant)) of the same compound?
**A.** Its pest or weed control at 250 g/ha is 0%.

**Q.** What about the pest or weed control at 15.625 g/ha ([10]; 15.625 g ai/ha, read-out: Velvetleaf damage rating (100=total damage to plant; 0=no damage to plant)) of the same compound?
**A.** Its pest or weed control at 15.625 g/ha is 0%.

**Q.** And the pest or weed control at 62.5 g/ha ([10]; 62.5 g ai/ha, 100=total damage to plant, 0=no damage to plant, read-out: Velvetleaf damage rating)?
**A.** The pest or weed control at 62.5 g/ha was 0%.

**Q.** And the pest or weed control at 250 g/ha ([10]; 250 g ai/ha, read-out: Velvetleaf damage rating (100=total damage to plant; 0=no damage to plant))?
**A.** The pest or weed control at 250 g/ha was 0%.

**Q.** What about the pest or weed control at 15.625 g/ha ([11]; 15.625 g ai/ha, read-out: Foxtail, Giant damage rating (100=total damage to plant; 0=no damage to plant)) of the same compound?
**A.** The pest or weed control at 15.625 g/ha was 0%.

**Q.** And the pest or weed control at 62.5 g/ha ([11]; 62.5 g ai/ha, 100=total damage to plant, 0=no damage to plant, read-out: Foxtail, Giant damage rating)?
**A.** The pest or weed control at 62.5 g/ha was 0%.

**Q.** What about the pest or weed control at 250 g/ha ([11]; 250 g ai/ha, read-out: Foxtail, Giant damage rating (100=total damage to plant; 0=no damage to plant)) of the same compound?
**A.** The pest or weed control at 250 g/ha was 20%.

**Q.** And the pest or weed control at 15.625 g/ha ([12]; 15.625 g ai/ha, read-out: Morningglory, Ivy-leaved damage rating (100=total damage to plant; 0=no damage to plant))?
**A.** The pest or weed control at 15.625 g/ha was 0%.

**Q.** What about the pest or weed control at 62.5 g/ha ([12]; 62.5 g ai/ha, 100=total damage to plant, 0=no damage to plant, read-out: Morningglory, Ivy-leaved damage rating) of the same compound?
**A.** Its pest or weed control at 62.5 g/ha is 0%.

**Q.** What about the pest or weed control at 250 g/ha ([12]; 250 g ai/ha, read-out: Morningglory, Ivy-leaved damage rating (100=total damage to plant; 0=no damage to plant)) of the same compound?
**A.** The pest or weed control at 250 g/ha was 0%.
